Assay results from patent US8912221B2, “Biaryl amide derivatives” (Hoffmann-La Roche Inc., priority 2010, dated 2014).

Tests used:
Bradykinin-1 receptor [1] = target: T1, Bradykinin-1 receptor (Homo sapiens (Human), UniProt P46663); test: Receptor Binding Assay; conditions: membranes from CHO-K1 cells overexpressing Bradykinin-1 receptor; 6 nM [3H]Kallidin (Des Arg10, Leu9); read-out: B1R Binding Ki
Experimental: Binding assays were done with membranes from CHO-K1 cells overexpressing Bradykinin-1 receptor.
For binding, Bradykinin-1 receptor antagonist compounds were added in various concentrations in 50 mM Tris pH 7.4, 5 mM MgCl2 together with 6 nM Kallidin (Des Arg^10, Leu^9), [3,4-Prolyl-3,4-^3H(N)] (PerkinElmer, 1.85-4.44 TBq/mmol) to 40 μg membrane protein containing approximately 1 fmol Bradykinin-1 receptor and incubated for 15 min at 27° C. To determine non-specific binding 10 μM Lys-(Des-Arg^9)-Bradykinin (Bachem) was added. Membranes were harvested through GF/B (glass fiber filter; PerkinElmer) plates, equilibrated with 0.5% polyethylenimine, air dried at 50° C. for 2 hr. Radioactivity was determined by counting in a topcounter (NXT Packard). Specific binding was defined as total binding minus nonspecific binding and typically represents about 90-95% of the total binding. Antagonist activity is expressed as Ki: inhibitor concentration required for 50% inhibition of specific binding corrected for the concentration of the radioligand.

Bradykinin-1 receptor [2] = target: T1, Bradykinin-1 receptor; test: Calcium Mobilization Assay; type: cell-based; conditions: GeneBLAzer Bradykinin (B1)-NFAT-bla CHO-K1 cells; antagonist activity, FLIPR; read-out: Ca mobilization IC50
Experimental: Calcium Mobilization Assay
GeneBLAzer® Bradykinin (B1)-NFAT-bla CHO-K1 cells (from Invitrogen) stably overexpressing the human bradykinin 1 receptor were cultured in DMEM (high glucose) supplemented with 10% dialysed FBS, 1% NEAA (non essential amino acids) 1% penicillin/streptomycin, 1% G418 and 0.1 mg/ml zeocin.
For the assay cells were grown overnight in 384-well black clear flat bottom polystyrene plates (Costar) at 37° C. at 5% CO2. After washing with DMEM, 20 mM Hepes, 2.5 mM probenecid, 0.1% BSA (DMEM assay buffer) cells were loaded with 4 μM Fluo-4 in the same DMEM assay buffer for 2 hours at 30° C. Excess dye was removed and cells were washed with DMEM assay buffer. 384-well compound plates were prepared with DMEM assay buffer/0.5% DMSO with or without various concentrations of test compounds. Usually compounds were tested for agonist and antagonist activity.
Test compounds were added to the assay plate and agonist activity was monitored as fluorescence for 80 seconds with a FLIPR (488 nm excitation; 510-570 nm emission; Molecular Devices). […] Increases in intracellular calcium are reported as maximum fluorescence after agonist exposure minus basal fluorescence before exposure. Antagonist activity is indicated as inhibitor concentration required for 50% inhibition of specific calcium increases.

T1 sequence (P46663 whole entry): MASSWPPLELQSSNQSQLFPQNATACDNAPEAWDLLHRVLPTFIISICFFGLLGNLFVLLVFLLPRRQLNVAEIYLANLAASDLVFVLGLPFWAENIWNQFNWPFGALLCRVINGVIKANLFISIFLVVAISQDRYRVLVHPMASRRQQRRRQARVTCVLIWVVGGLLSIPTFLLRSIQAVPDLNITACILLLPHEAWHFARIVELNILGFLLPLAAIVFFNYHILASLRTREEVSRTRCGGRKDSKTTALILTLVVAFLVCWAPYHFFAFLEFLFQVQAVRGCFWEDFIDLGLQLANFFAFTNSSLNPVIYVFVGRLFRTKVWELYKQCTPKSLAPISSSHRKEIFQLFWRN

Structure (SMILES)	Ki (Bradykinin-1 receptor [1])	IC50 (Bradykinin-1 receptor [2])
COCC(=O)NC1(C(=O)N[C@H](C)c2ncc(-c3cc(Cl)cc(F)c3-c3noc(C)n3)cc2F)COC1 [Example 17, 3-(2-Methoxy-acetylamino)-oxetane-3-carboxylic acid ((R)-1-{5-[5-chloro-3-fluoro-2-(5-methyl-[1,2,4]oxadiazol-3-yl)-phenyl]-3-fluoro-pyridin-2-yl}-ethyl)-amide]	25 nM	26.6 nM
COc1cc(C(=O)NC2(C(=O)N[C@H](C)c3ncc(-c4cc(Cl)cc(F)c4-c4noc(C)n4)cc3F)COC2)on1 [Example 14, 3-Methoxy-isoxazole-5-carboxylic acid [3-((R)-1-{5-[5-chloro-3-fluoro-2-(5-methyl-[1,2,4]oxadiazol-3-yl)-phenyl]-3-fluoro-pyridin-2-yl}-ethylcarbamoyl)-oxetan-3-yl]-amide]	1.4 nM	0.2 nM
C[C@@H](NC(=O)C1(NC(=O)c2ccno2)COC1)c1ncc(-c2cc(Cl)cc(Cl)c2OCC(F)F)cc1F [Example 10, Isoxazole-5-carboxylic acid [3-((R)-1-{5-[3,5-dichloro-2-(2,2-difluoro-ethoxy)-phenyl]-3-fluoro-pyridin-2-yl}-ethylcarbamoyl)-oxetan-3-yl]-amide]	4.7 nM	3.3 nM
COc1ncc(C(=O)NC2(C(=O)N[C@H](C)c3ncc(-c4cc(Cl)cc(F)c4-c4noc(C)n4)cc3F)COC2)cn1 [Example 15, 2-Methoxy-pyrimidine-5-carboxylic acid [3-((R)-1-{5-[5-chloro-3-fluoro-2-(5-methyl-[1,2,4]oxadiazol-3-yl)-phenyl]-3-fluoro-pyridin-2-yl}-ethylcarbamoyl)-oxetan-3-yl]-amide]	1.1 nM	0.1 nM
Cc1nc(-c2c(F)cc(Cl)cc2-c2cnc([C@@H](C)NC(=O)C3(NC(=O)c4snnc4C)COC3)c(F)c2)no1 [Example 16, 4-Methyl-[1,2,3]thiadiazole-5-carboxylic acid [3-((R)-1-{5-[5-chloro-3-fluoro-2-(5-methyl-[1,2,4]oxadiazol-3-yl)-phenyl]-3-fluoro-pyridin-2-yl}-ethylcarbamoyl)-oxetan-3-yl]-amide]	1.6 nM	0.4 nM
Cc1nnc(C(=O)NC2(C(=O)N[C@H](C)c3ccc(-c4cc(Cl)cc(Cl)c4OCC(F)F)cc3F)COC2)o1 [Example 38, 5-Methyl-[1,3,4]oxadiazole-2-carboxylic acid (3-{(R)-1-[3′,5′-dichloro-2′-(2,2-difluoro-ethoxy)-3-fluoro-biphenyl-4-yl]-ethylcarbamoyl}-oxetan-3-yl)-amide]	4.3 nM	0.6 nM
Cc1cc(C(=O)NC2(C(=O)N[C@H](C)c3ccc(-c4cc(Cl)cc(F)c4-c4nnn(C)n4)cc3F)COC2)on1 [Example 23, 3-Methyl-isoxazole-5-carboxylic acid (3-{(R)-1-[5′-chloro-3,3′-difluoro-2′-(2-methyl-2H-tetrazol-5-yl)-biphenyl-4-yl]-ethylcarbamoyl}-oxetan-3-yl)-amide]	1 nM	0.1 nM
C[C@@H](NC(=O)C1(NC(=O)C(F)(F)F)COC1)c1ccc(-c2cc(Cl)cc(Cl)c2OCC(F)F)cc1F [Example 33, 3-(2,2,2-Trifluoro-acetylamino)-oxetane-3-carboxylic acid {(R)-1-[3′,5′-dichloro-2′-(2,2-difluoro-ethoxy)-3-fluoro-biphenyl-4-yl]-ethyl}-amide]	19.9 nM	5.3 nM
Cc1nc(-c2c(F)cc(Cl)cc2-c2cnc([C@@H](C)NC(=O)C3(NC(=O)c4nnc(C)o4)COC3)c(F)c2)no1 [Example 19, 5-Methyl-[1,3,4]oxadiazole-2-carboxylic acid [3-((R)-1-{5-[5-chloro-3-fluoro-2-(5-methyl-[1,2,4]oxadiazol-3-yl)-phenyl]-3-fluoro-pyridin-2-yl}-ethylcarbamoyl)-oxetan-3-yl]-amide]	5.1 nM	1.2 nM
C[C@@H](NC(=O)C1(NC(=O)c2cncnc2)COC1)c1ncc(-c2cc(Cl)cc(Cl)c2OCC(F)F)cc1F [Example 11, Pyrimidine-5-carboxylic acid [3-((R)-1-{5-[3,5-dichloro-2-(2,2-difluoro-ethoxy)-phenyl]-3-fluoro-pyridin-2-yl}-ethylcarbamoyl)-oxetan-3-yl]-amide]	2.6 nM	0.8 nM
COC(=O)c1c(Cl)cccc1-c1ccc([C@@H](C)NC(=O)C2(NC(=O)CC(F)(F)F)COC2)c(F)c1 [Example 8, 3-Chloro-3′-fluoro-4′-((R)-1-{[3-(3,3,3-trifluoro-propionylamino)-oxetane-3-carbonyl]-amino}-ethyl)-biphenyl-2-carboxylic acid methyl ester]	5.3 nM	0.4 nM
Cc1cc(C(=O)NC2(C(=O)N[C@H](C)c3ncc(-c4cc(Cl)cc(F)c4-c4nnn(C)n4)cc3F)COC2)on1 [Example 20, 3-Methyl-isoxazole-5-carboxylic acid [3-((R)-1-{5-[5-chloro-3-fluoro-2-(2-methyl-2H-tetrazol-5-yl)-phenyl]-3-fluoro-pyridin-2-yl}-ethylcarbamoyl)-oxetan-3-yl]-amide]	1.6 nM	0.4 nM
COc1cc(C(=O)NC2(C(=O)N[C@H](C)c3ncc(-c4cc(Cl)cc(Cl)c4OCC(F)F)cc3F)COC2)on1 [Example 18, 3-Methoxy-isoxazole-5-carboxylic acid [3-((R)-1-{5-[3,5-dichloro-2-(2,2-difluoro-ethoxy)-phenyl]-3-fluoro-pyridin-2-yl}-ethylcarbamoyl)-oxetan-3-yl]-amide]	3 nM	1.1 nM
COc1ncc(C(=O)NC2(C(=O)N[C@H](C)c3ccc(-c4cc(Cl)cc(F)c4-c4nnn(C)n4)cc3F)COC2)cn1 [Example 44, 2-Methoxy-pyrimidine-5-carboxylic acid (3-{(R)-1-[5′-chloro-3,3′-difluoro-2′-(2-methyl-2H-tetrazol-5-yl)-biphenyl-4-yl]-ethylcarbamoyl}-oxetan-3-yl)-amide]	1.1 nM	0.1 nM
Cc1nnsc1C(=O)NC1(C(=O)N[C@H](C)c2ncc(-c3cc(Cl)cc(Cl)c3OCC(F)F)cc2F)COC1 [Example 41, 4-Methyl-[1,2,3]thiadiazole-5-carboxylic acid [3-((R)-1-{5-[3,5-dichloro-2-(2,2-difluoro-ethoxy)-phenyl]-3-fluoro-pyridin-2-yl}-ethylcarbamoyl)-oxetan-3-yl]-amide]	7.1 nM	3.6 nM
Cc1nc(-c2c(F)cc(Cl)cc2-c2cnc([C@@H](C)NC(=O)C3(NC(=O)c4cccnn4)COC3)c(F)c2)no1 [Example 29, Pyridazine-3-carboxylic acid [3-((R)-1-{5-[5-chloro-3-fluoro-2-(5-methyl-[1,2,4]oxadiazol-3-yl)-phenyl]-3-fluoro-pyridin-2-yl}-ethylcarbamoyl)-oxetan-3-yl]-amide]	14.1 nM	9.4 nM
COC(=O)c1c(Cl)cccc1-c1ccc([C@@H](C)NC(=O)C2(NC(=O)c3ccno3)COC2)c(F)c1 [Example 12, 3-Chloro-3′-fluoro-4′-[(R)-1-({3-[(isoxazole-5-carbonyl)-amino]-oxetane-3-carbonyl}-amino)-ethyl]-biphenyl-2-carboxylic acid methyl ester]	0.8 nM	0.1 nM
Cc1nc(-c2c(F)cc(Cl)cc2-c2cnc([C@@H](C)NC(=O)C3(NC(=O)C(F)(F)F)COC3)c(F)c2)no1 [Example 2, 3-(2,2,2-Trifluoro-acetylamino)-oxetane-3-carboxylic acid ((R)-1-{5-[5-chloro-3-fluoro-2-(5-methyl-[1,2,4]oxadiazol-3-yl)-phenyl]-3-fluoro-pyridin-2-yl}-ethyl)-amide]	11.9 nM	1.2 nM
COc1cc(C(=O)NC2(C(=O)N[C@H](C)c3ncc(-c4cc(Cl)cc(F)c4-c4nnn(C)n4)cc3F)COC2)on1 [Example 34, 3-Methoxy-isoxazole-5-carboxylic acid [3-((R)-1-{5-[5-chloro-3-fluoro-2-(2-methyl-2H-tetrazol-5-yl)-phenyl]-3-fluoro-pyridin-2-yl}-ethylcarbamoyl)-oxetan-3-yl]-amide]	2.2 nM	0.4 nM
COc1cc(C(=O)NC2(C(=O)N[C@H](C)c3ccc(-c4cc(Cl)cc(F)c4-c4nnn(C)n4)cc3F)COC2)on1 [Example 43, 3-Methoxy-isoxazole-5-carboxylic acid (3-{(R)-1-[5′-chloro-3,3′-difluoro-2′-(2-methyl-2H-tetrazol-5-yl)-biphenyl-4-yl]-ethylcarbamoyl}-oxetan-3-yl)-amide]	1.4 nM	0.1 nM
